Results published in ChEMBL document CHEMBL3988442, “University of Dundee, Small-Polar-MMV Screening Library” (2021).

Assays:
[1] = microbe, parasite or virus in culture; conditions: Mycobacterium tuberculosis, 96 h, read-out: pIC50 (converted)
[2] = microbe, parasite or virus in culture; conditions: Mycobacterium tuberculosis, 72 h, read-out: pIC50 (converted)

Compound	IC50 [1] [µM]	IC50 [2] [µM]
CC(NC(=O)CSc1nnnn1C1CC1)c1cccs1 (stereo unspecified)	> 501	433
Cc1ccc(-c2noc(CN3CC(n4cc(C)cn4)C3)n2)cc1	22.6	49.1
Cc1cc(NCCC(=O)NC(C)C)nc(-c2ccncc2)n1	> 50.1	> 50.1
Cc1csc(NC(=O)CNC(=O)c2cccs2)n1	> 501	185
O=C(NCc1cccnc1)C1COc2ccccc2O1 (stereo unspecified)	> 501	> 501
Cc1ccc(CNc2ccccc2-n2ccc(C)n2)nc1	24.5	> 50.1
CC(C)(C#N)C(=O)NCCNc1cccc(Br)c1	206	267
O=C(c1cnc(C2CC2)nc1)N1CCCC(c2nccs2)C1 (stereo unspecified)	6.43	8.4
Cc1occc1C(=O)NCC(CO)Cc1cccs1 (stereo unspecified)	> 501	> 501
CC(C)NC(=O)Nc1cc(C(F)(F)F)c[nH]c1=O	109	92.8
O=C(NCc1ccc2c(c1)OCCCO2)c1cscn1	111	107
CCc1cc2c(N3CCCC(c4ccn[nH]4)C3)ncnc2s1 (stereo unspecified)	12.6	9.09
O=c1c2sccc2nc2n1CCN(Cc1ccc(F)c(F)c1)CC2	4.05	> 50.1
COC(=O)c1ccc(C(=O)NCc2ccc(Br)cc2)cn1	25.6	24.8
CN(Cc1nc2ccccc2o1)C1CCCN(c2cccnn2)C1 (stereo unspecified)	> 50.1	> 50.1
OCCC1COc2ccc(F)cc2N1 (stereo unspecified)	> 501	> 501
C=C(Br)CN1CCN(CCNC(=O)C2CCC2)CC1	> 501	278
CNC(=O)c1sc(NC2CC2)nc1C	88.1	72.7
O=c1oc(-c2ccc(F)cc2)nn1CC1CCCCO1 (stereo unspecified)	> 50.1	0.609
NCCc1ccc2cc[nH]c2c1	> 501	212
O=C1CCC(Nc2nc(-c3ccccc3)ns2)CN1 (stereo unspecified)	286	> 501
N#Cc1cc(Br)cc(S(=O)(=O)NCCCN)c1	> 501	> 501
Cc1nnc(SCCC(=O)N(C)Cc2ccc(Cl)s2)[nH]1	27.3	> 50.1
CC(C)N(C)S(=O)(=O)NC1CCOc2ccccc21 (stereo unspecified)	> 501	340
OCC(O)CSCc1nc(-c2ccc(Cl)cc2)no1 (stereo unspecified)	260	385
Cc1ccc(S(=O)(=O)N2CCC[C@@H](N)C2)c(C)c1	276	219
Cc1ccc(CN(Cc2ccncc2)C2CCN(C)CC2)s1	> 50.1	> 50.1

Compound	IC50 [1] [µM]	IC50 [2] [µM]
CCc1cccc2c1N(C(=O)CNC)CC2	> 501	367
CCNCc1nc(-c2ccccc2)no1	> 501	> 501
CC(C)COCC(O)Cn1nnc(-c2ccco2)n1 (stereo unspecified)	12.9	88.9
Cn1cc(NC(=O)c2ccc(Br)s2)cc1C(N)=O	285	341
Cc1cc(C)n(CC(=O)NCc2ccc(F)cc2)n1	> 501	216
CN(C)C(=O)CCCn1nnc(-c2ccsc2)n1	155	89.8
COc1ccccc1CN1CCC(N)CC1	> 501	130
NCc1cnn(-c2ccc(Br)cc2)c1	196	147
C=C(C)CN1CCC(NC(=O)N2CCSCC2)CC1	> 501	> 501
CNC1CCN(c2cc(OC)cc(OC)c2)C1 (stereo unspecified)	225	309
COc1ccc(Nc2ncccc2S(N)(=O)=O)cc1	> 501	> 501
COCCSCc1cccc(NC(=O)C(C)N)c1 (stereo unspecified)	> 501	119
Cc1cc(Br)cc(C(=O)NCc2nccc(N)n2)c1	> 501	> 501
COCCCOc1ccc2c(c1)OCCO2	109	92.8
O=C(c1ccnn1COc1ccc(Cl)cc1)N1CCCC1	> 50.1	> 50.1
CC(C)c1cc(CN2CCNCC2)no1	> 50.1	32.6
O=C1CCC2(CNC(=O)C3CC3)CCCC=C2N1 (stereo unspecified)	> 501	> 501
NC1(c2nc(C3CC3)cc(=O)[nH]2)CCCC1	> 501	304
CC(C)(C)OC(=O)N1CCN(C2CCC(N)CC2)CC1 (stereo unspecified)	> 501	> 501
CCC(CO)Nc1nccc(C(F)(F)F)n1 (stereo unspecified)	> 501	> 501
CCNc1ncc(C(=O)N2CCC(c3ccccc3C(=O)O)C2)cn1 (stereo unspecified)	> 50.1	> 50.1
CCc1nc(CCN)cs1	152	113
COCCOc1ccc(NC(=O)OCC(F)(F)F)cn1	110	208
N#Cc1cccnc1N1CCOC(c2nccs2)C1 (stereo unspecified)	> 501	138
CCOc1cc([C@H]2N[C@@H](c3nc(C)cs3)Cc3ccsc32)ccc1OC	> 50.1	12.8
COc1ccnc(CN2CCCC2CSC)c1OC (stereo unspecified)	> 501	180
